Measured values taken from article PMC9594046, “Identification of Histone Peptide Binding Specificity and Small-Molecule Ligands for the TRIM33α and TRIM33β Bromodomains” (ACS Chemical Biology, 2022).
Numbering of substitutions follows the chain as printed. pIC50, pKd: −log10 of the molar value.

What was measured:
TRIM33α PHD-BRD = target: T1, TRIM33α PHD-BRD (Homo sapiens, UniProt Q9UPN9); assay: AlphaScreen dose-response displacement of biotinylated H3 peptide; details: for pIC50: TRIM33α IC50 (AlphaScreen)
T1 sequence (Q9UPN9 888-1127): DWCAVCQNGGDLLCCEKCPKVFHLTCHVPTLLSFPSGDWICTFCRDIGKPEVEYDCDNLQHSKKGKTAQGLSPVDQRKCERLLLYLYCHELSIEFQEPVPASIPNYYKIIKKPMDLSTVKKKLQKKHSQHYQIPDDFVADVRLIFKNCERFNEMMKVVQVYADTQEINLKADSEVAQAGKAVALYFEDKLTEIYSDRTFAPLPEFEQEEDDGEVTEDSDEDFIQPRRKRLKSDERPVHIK
Description: (§5) To establish an AlphaScreen assay,[13],[50],[51] the PHD-BRD cassettes of TRIM24 and both TRIM33 isoforms were expressed with an N-terminal His6 tag attached (CD spectra for these constructs are shown in Figure S9).
(§6) Assay buffer was freshly prepared each day by supplementing HEPES buffer with BSA, the pH was
(§7) adjusted to 7.6 and filter sterilized through a 0.22 µm filter, and stored at 4 °C until use.
(§8) steps, the plate was sealed, shaken for 10 sec at 600 rpm on a plate oscillator, and incubated at room
(§9) in triplicate, as point concentrations or serial buffer dilutions from 50 mM DMSO solutions.
(§10) peptide mix (7 µL) was dispensed into each well using a Thermo-Fisher electronic multi-channel
(§11) pipette, and incubated for 30 min. AlphaScreen bead mix (8 µL; 25 µg/mL of acceptor and donor beads)
(§12) was added to each well, taking adequate precautions to avoid light exposure, before being incubated for
(§13) 1 h. The plate was read using a Synergy™ 2 MultiMode Microplate Reader using the built-in
(§14) Single shot screening was performed in triplicate.
(§15) <0.5% DMSO. Inhibition is reported as a reduction in signal arising from peptide-bromodomain
(§16) interaction, normalised to a DMSO control. Signal response curves were obtained for peptides or
(§17) compounds in triplicate, with serial 1:2 dilutions. Samples containing buffer or DMSO in place of
(§18) compound were included in all assays for normalisation. Data were processed by fitting a four-
(§19) parameter equation shown below to calculate IC50 values using GraFit version 7.0.32 or GraphPad Prism
(§20) 𝑌 = 𝑀𝑖𝑛𝑖𝑚𝑢𝑚 + 𝑀𝑎𝑥𝑖𝑚𝑢𝑚 − 𝑚𝑖𝑛𝑖𝑚𝑢𝑚 ,𝑤ℎ𝑒𝑟𝑒 𝑋 = log (𝑐𝑜𝑚𝑝𝑜𝑢𝑛𝑑 𝑐𝑜𝑛𝑐𝑒𝑛𝑡𝑟𝑎𝑡𝑖𝑜𝑛) 1 + 10("#$%&!"’()(*+,, .,/01)
(§21) Assay buffer was prepared as above. For incubation steps, the plate was sealed, shaken for 10 sec at
(§22) 600 rpm on a plate oscillator, and incubated at room temperature in the dark. Peptides (5 µL) were
(§23) dilutions from 100 µM HEPES buffer stock solutions. Protein (7 µL) was dispensed into each well
(§24) using a Thermo-Fisher electronic multi-channel pipette, and incubated for 30 min. AlphaScreen bead
(§25) mix (8 µL; 25 µg/mL of acceptor and donor beads) was added to each well, avoiding light exposure,
(§26) before being incubated for 1 h. The plate was read using a Synergy™ 2 MultiMode Microplate Reader
(§27) Ni2+ chelate acceptor and streptavidin donor beads were prepared as a mixture in a 1:300 or 1:400
(§28) dilution as required (0.005–0.007 mg/mL FAC); biotinylated peptide employed, and final assay
(§29) concentrations were as detailed in table below. Assay well volume was 20 µL.
(§30) Peptides were supplied as 1–9 mg quantities with >95% purity (as determined by HPLC; Cambridge
(§31) Research Biochemicals or Genscript). Residual water and counter ions were predicted to comprise 20%
(§32) of the net mass, and peptides were dissolved to 10, 1.0, and 0.1 mM stocks in buffer (50 mM HEPES,
(§33) 500 mM NaCl; pH 7.6) before being stored at -80 °C in 5 µL aliquots. A terminal tyrosine residue was
(§34) incorporated into the peptide structure to allow for accurate quantification of concentration.

TRIM24 BRD = details: read-out: TRIM24 Kd (ITC); cited from earlier work
TRIM24 PHD-BRD = target: T2, TRIM24 PHD-BRD (Homo sapiens, UniProt O15164); assay: AlphaScreen dose-response displacement of biotinylated H3 peptide
T2 sequence (O15164 with tags, fused parts or gaps): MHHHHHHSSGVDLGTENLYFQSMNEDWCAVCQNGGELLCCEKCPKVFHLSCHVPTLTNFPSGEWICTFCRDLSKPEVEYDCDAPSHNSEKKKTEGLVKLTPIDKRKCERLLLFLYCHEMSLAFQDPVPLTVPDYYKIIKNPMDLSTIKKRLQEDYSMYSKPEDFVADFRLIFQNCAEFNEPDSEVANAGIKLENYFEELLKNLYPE
Description: as §5, §6, §7, §8, §9, §10, §11, §12, §13, §14, §15, §16, §17, §18, §19, §20, §21, §22, §23, §24, §25, §26, §27, §28, §29, §30, §31, §32, §33, §34

BRPF1 BRD = details: read-out: BRPF Kd (ITC); cited from earlier work
TRIM33 = system: TRIM33; parameters: method as in earlier work; details: isoform later confirmed to be TRIM33α; read-out: reported TRIM33 IC50 (AlphaScreen); cited from earlier work
TRIM33β PHD-BRD [1] = target: T3, TRIM33β PHD-BRD (Homo sapiens, UniProt Q9UPN9); assay: AlphaScreen dose-response displacement of biotinylated H3 peptide
T3 sequence (Q9UPN9 888-1110 isoform Q9UPN9-2 limits assumed): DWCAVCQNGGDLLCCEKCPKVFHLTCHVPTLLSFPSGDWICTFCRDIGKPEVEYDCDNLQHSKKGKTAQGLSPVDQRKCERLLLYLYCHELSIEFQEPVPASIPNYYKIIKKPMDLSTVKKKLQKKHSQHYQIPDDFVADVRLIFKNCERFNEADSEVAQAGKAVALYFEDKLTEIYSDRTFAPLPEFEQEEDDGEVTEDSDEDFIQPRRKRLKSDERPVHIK
Description: as §5, §6, §7, §8, §9, §10, §11, §12, §13, §14, §15, §16, §17, §18, §19, §20, §21, §22, §23, §24, §25, §26, §27, §28, §29, §30, §31, §32, §33, §34

TRIM33β PHD-BRD [2] = target: T3, TRIM33β PHD-BRD; assay: Isothermal titration calorimetry (ITC); assay type: binding; parameters: The TRIM33β cassette (residues 888–1127) was expressed; made in house; host or cells: E. coli BL21 (DE3) Gold; details: cell 40 µM compound, syringe 316 µM TRIM33β
Description: The first data point was excluded from the analysis.
(1 picture or pasted object on this page, not shown here)

TRIM24 N980F = target: T4, TRIM24 N980F (Homo sapiens, UniProt O15164, N980F); assay: Qualitative WaterLOGSY binding; parameters: key: ✓: √ is assigned to compounds that showed binding; ? is assigned when the result was ambiguous; × is assigned when no-binding was observed; details: 500 µM compound, 20 µM protein
T4 sequence (O15164 825-1007 N980F limits assumed): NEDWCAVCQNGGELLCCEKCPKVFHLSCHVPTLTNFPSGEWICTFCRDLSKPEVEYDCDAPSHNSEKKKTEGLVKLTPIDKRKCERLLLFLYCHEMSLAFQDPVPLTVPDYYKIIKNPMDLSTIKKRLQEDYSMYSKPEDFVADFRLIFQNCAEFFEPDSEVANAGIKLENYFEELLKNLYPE
Description: (§1) To investigate where these compounds bind on the TRIM24 or 33 PHD-BRD cassette, we performed waterLOGSY experiments using the wild-type and mutant reader domains (Table 4).
(§2) Table S19. WaterLOGSY buffer composition (10 mM Na/K phosphate buffer, PBS, pH 7.6).
(§3) Reagent Amount required per litre (g)
(§4) The buffer was filtered under vacuum through a 0.2 µm filter paper (Sartorius UK) before use and stored at 4 °C. Proteins were buffer exchanged from HEPES storage buffer into PBS buffer (0.9% NaCl, pH 7.6) using GE Healthcare PD SpinTrap G-25 columns. For each compound, a water-suppressed 1H spectrum was recorded as a reference, followed by waterLOGSY spectra of the compound in the absence and presence of the specified protein. Samples were prepared to a total sample volume of 160 µL in PBS buffer (pH 7.6), with 500 µM compound (unless otherwise specified) from 50 mM DMSO-D6 stock solutions, 10% D2O for signal locking, and 20 µM protein (unless otherwise specified) for samples with protein. After loading into 3 mm Hilgenberg NMR tubes for Bruker Match™ system, samples were briefly centrifuged in a manual benchtop rotor. Spectra were recorded on a Bruker AVIII 700 MHz spectrometer with inverse TCI cryoprobe using a standard waterLOGSY pulse sequence.4 Peaks were assigned using DMSO-D6 as a reference peak at 2.5 ppm.

TRIM33α WT = target: T5, TRIM33α WT (Homo sapiens, UniProt Q9UPN9); assay: Qualitative WaterLOGSY binding; parameters: key: ✓: √ is assigned to compounds that showed binding; ? is assigned when the result was ambiguous; × is assigned when no-binding was observed; details: 500 µM compound, 20 µM protein
T5 construct: The TRIM33β cassette (residues 888–1127) was expressed; made in house; host or cells: E. coli BL21 (DE3) Gold
T5 sequence (Q9UPN9 888-1127): T1 sequence (Q9UPN9 888-1127)
Description: as §1, §2, §3, §4

TRIM33α N1039F = target: T6, TRIM33α N1039F (Homo sapiens, UniProt Q9UPN9, N1039F); assay: Qualitative WaterLOGSY binding; parameters: key: ✓: √ is assigned to compounds that showed binding; ? is assigned when the result was ambiguous; × is assigned when no-binding was observed; details: 500 µM compound, 20 µM protein
T6 construct: The TRIM33β cassette (residues 888–1127) was expressed; made in house; host or cells: E. coli BL21 (DE3) Gold
T6 sequence (Q9UPN9 888-1127 N1039F): T1 sequence (Q9UPN9 888-1127) with N152F
Description: as §1, §2, §3, §4

TRIM24 WT = target: T7, TRIM24 WT (Homo sapiens, UniProt O15164); assay: Qualitative WaterLOGSY binding; parameters: key: ✓: √ is assigned to compounds that showed binding; ? is assigned when the result was ambiguous; × is assigned when no-binding was observed; details: 500 µM compound, 20 µM protein
T7 construct: His6-TRIM24 (BRD-PHD); made in house; host or cells: E. coli BL21 (DE3) Gold
T7 sequence (O15164 with tags, fused parts or gaps): T2 sequence (O15164 with tags, fused parts or gaps)
Description: as §1, §2, §3, §4

TRIM33β N1039F = target: T8, TRIM33β N1039F (Homo sapiens, UniProt Q9UPN9, N1039F); assay: Qualitative WaterLOGSY binding; parameters: key: ✓: √ is assigned to compounds that showed binding; ? is assigned when the result was ambiguous; × is assigned when no-binding was observed; details: 500 µM compound, 20 µM protein
T8 construct: The TRIM33β cassette (residues 888–1127) was expressed; made in house; host or cells: E. coli BL21 (DE3) Gold
T8 sequence (Q9UPN9 888-1110 isoform Q9UPN9-2 N1039F): T3 sequence (Q9UPN9 888-1110 isoform Q9UPN9-2 limits assumed) with N152F
Description: as §1, §2, §3, §4

TRIM33β WT = target: T9, TRIM33β WT (Homo sapiens, UniProt Q9UPN9); assay: Qualitative WaterLOGSY binding; parameters: key: ✓: √ is assigned to compounds that showed binding; ? is assigned when the result was ambiguous; × is assigned when no-binding was observed; details: 500 µM compound, 20 µM protein
T9 construct: The TRIM33β cassette (residues 888–1127) was expressed; made in house; host or cells: E. coli BL21 (DE3) Gold
T9 sequence (Q9UPN9 888-1110 isoform Q9UPN9-2 limits assumed): T3 sequence (Q9UPN9 888-1110 isoform Q9UPN9-2 limits assumed)
Description: To determine whether compounds 3–7 are genuine ligands for TRIM33, we employed an AlphaScreen TruHits screen.[58] The TruHits screen includes streptavidin-coated donor beads and biotinylated acceptor beads, which interact to generate a signal. Compounds that interfere with this control signal, such as fluorescence quenchers, insoluble light scatterers, ^1O2 quenchers, and biotin mimetics, can be identified using this approach. In the TruHits screen,[59] significant assay interference was observed from all five compounds (3–7, Table S21), meaning that AlphaScreen data generated for these compounds are unreliable. We therefore sought to investigate TRIM33 binding of compounds 3 and 4 using ITC and waterLOGSY approaches (Figures S3–6). These compounds were selected as they have a range of reported IC50 values for TRIM33. […] To determine whether these compounds are weak binders to TRIM33β, we subjected them to a waterLOGSY assay against TRIM33β. […] However, the use of different protein isoforms may account for some of the observed discrepancies.
as §1, §2, §3, §4

[3] = peptide in assay H31-27K9Me3 (PHD)
[4] = peptide in assay H31-27K9Me3K18Ac (DUAL)
[5] = peptide in assay H31-27K18Ac (BRD)
[6] = TRIM24 IC50 (AlphaScreen), peptide in assay H31-27K9Me3 (PHD)
[7] = TRIM24 IC50 (AlphaScreen), peptide in assay H31-27K9Me3K18Ac (DUAL)
[8] = TRIM24 IC50 (AlphaScreen), peptide in assay H31-27K18Ac (BRD)

pIC50 (TRIM33α PHD-BRD; [3])	pIC50 (TRIM33α PHD-BRD; [4])	pIC50 (TRIM33α PHD-BRD; [5])	pIC50 (TRIM33β PHD-BRD [1]; [3])	pIC50 (TRIM33β PHD-BRD [1]; [4])	pIC50 (TRIM33β PHD-BRD [1]; [5])	pIC50 (TRIM24 PHD-BRD; [6])	pIC50 (TRIM24 PHD-BRD; [7])	pIC50 (TRIM24 PHD-BRD; [8])	WaterLOGSY binding TRIM24 N980F (TRIM24 N980F)	WaterLOGSY binding TRIM33α WT (TRIM33α WT)	WaterLOGSY binding TRIM33α N1039F (TRIM33α N1039F)	WaterLOGSY binding TRIM24 WT (TRIM24 WT)	WaterLOGSY binding TRIM33β N1039F (TRIM33β N1039F)	WaterLOGSY binding TRIM33β WT (TRIM33β WT)	SMILES	further results
–	–	–	–	–	–	–	–	–	–	–	–	–	–	–	COc1ccc(Oc2cc3c(cc2NS(=O)(=O)c2ccc(OC)c(OC)c2)n(C)c(=O)n3C)cc1 [Compound 2]	displacement of H3_1–27K18Ac from TRIM33α (AlphaScreen) (TRIM33α PHD-BRD): not for either isoform of TRIM33; pKd (TRIM24 BRD): 6.65; pIC50 (TRIM24 PHD-BRD; IC50 binding to the TRIM24 BRD-PHD (AlphaScreen), displacement of H3_1–27K18Ac): 6.66; pKd (BRPF1 BRD): 6.86
5.72	5.94	5.80	5.85	5.74	5.83	5.73	5.84	5.75	–	–	–	–	–	–	COc1ccc(Nc2c(-c3[nH]cnc3C)nc3ccc(Br)cn23)cc1 [Compound 3]	pIC50 (TRIM33): 6.27; binding to TRIM33β by ITC (TRIM33β PHD-BRD [2]): Neither compound showed binding
< 3.60	< 3.60	< 3.60	< 3.60	4.23	4.26	4.28	4.64	4.73	–	–	–	–	–	–	Cc1nc[nH]c1-c1nc2ccccn2c1NCCN1CCOCC1 [Compound 4]	pIC50 (TRIM33): 5.42; binding to TRIM33β by ITC (TRIM33β PHD-BRD [2]): Neither compound showed binding
5.57	5.77	5.56	5.47	5.51	5.50	5.45	5.48	5.38	–	–	–	–	–	–	Cc1nc[nH]c1-c1nc2ccccn2c1NC1CCCCC1 [Compound 5]	–
< 3.60	4.12	4.78	5.17	5.05	5.10	4.77	4.95	4.70	–	–	–	–	–	–	COC(=O)c1ccc2nc(-c3c[nH]c(C)n3)c(NC3CCCCC3)n2c1 [Compound 6]	–
< 3.60	< 3.60	< 3.60	< 3.60	< 3.60	< 3.60	3.98	4.24	4.36	–	–	–	–	–	–	CC(C)(C)Nc1c(-c2c[nH]c3ncccc23)nc2ccccn12 [Compound 7]	–
–	–	–	–	–	–	–	–	–	×	✓	✓	✓	?	✓	Cn1c(=O)n(C)c2cc(CNCCc3ccc(S(N)(=O)=O)cc3)ccc21 [Compound 8]	–
–	–	–	–	–	–	–	–	–	×	✓	✓	×	×	✓	O=C(CN1CCOC(c2cncc(-c3cccc(F)c3)n2)C1)NCc1ccccn1 (stereo not drawn) [Compound 9]	–
–	–	–	–	–	–	–	–	–	✓	✓	✓	✓	✓	✓	O=C(Nc1ccccc1)Nc1ccc2cccnc2c1 [Compound 10]	–
–	–	–	–	–	–	–	–	–	✓	✓	✓	✓	✓	✓	Cc1cc2c(NC(=O)Nc3ccccc3)cccc2nn1 [Compound 11]	–
–	–	–	–	–	–	–	–	–	–	–	–	–	–	–	CCCOc1cc(OCCCCN(C)C)cc(Oc2cc3c(cc2NS(=O)(=O)c2ccc(OC)c(OC)c2)n(C)c(=O)n3C)c1 [IACS-9571]	pKd (BRPF1 BRD): 7.85
